Laboratory results from paper PMC4917206, “Chemical Modification of Influenza CD8+ T-Cell Epitopes Enhances Their Immunogenicity Regardless of Immunodominance” (PLoS ONE, 2016).

What follows are substances tested against T1, HLA-A*0301 (Homo sapiens, UniProt P04439). Conditions: not given.
T1 construct: Soluble MHC was dissolved in PBS containing 0.5 mg/ml bovine γ-globulin; made in house
Assay type: binding

Substance | FP binding score, percentage inhibition of tracer peptide binding, 4h | FP binding score, percentage inhibition of tracer peptide binding, 24h
ILRGSVAHK [I WT, reference compound] | 66% | 87%
ILRGSV[2-AOC]HK [I65] | 87% | 94%
ILRGSV[NLE]HK [I63] | 74% | 89%
IL[4-FPHE]GSVAHK [I94] | 70% | 89%
I[AHA]RGSV[2-FUR]HK [I79] | 77% | 90%
I[AHA]RGSV[CSET]HK [I73] | 74% | 90%
I[AHA]RGSV[CpALA]HK [I77] | 71% | 89%
I[AHA]RGSV[NLE]HK [I74] | 77% | 92%
I[AHA][2-AOC]GSVAHK [I59] | 71% | 91%
I[AHA][4-FPHE]GSVAHK [I87] | 73% | 91%
I[AHA][CHA]GSVAHK [I89] | 75% | 91%
I[AHA][CSME]GSVAHK [I86] | 71% | 89%
I[AHA][CpALA]GSVAHK [I83] | 70% | 89%
I[AHA][NLE]GSVAHK [I58] | 68% | 89%
I[AHA][PRG]GSVAHK [I84] | 71% | 89%
I[AHA][SOME]GSVAHK [I85] | 69% | 88%
I[OrnN2]RGSVAHK [I49] | 71% | 90%
RMVLSAFDEK [R4] | 61% | 69%
RMVLSAFDER [R WT, reference compound] | 18% | 6%
RMVLSAF[2-AOC]ER [R38] | 69% | 75%
RMVLSAF[4-FPHE]ER [R40] | 63% | 57%

Substance | FP binding score, percentage inhibition of tracer peptide binding, 4h | FP binding score, percentage inhibition of tracer peptide binding, 24h
RMVLSAF[AHA]ER [R81] | 71% | 76%
RMVLSAF[CSET]ER [R37] | 60% | 60%
RMVLSAF[CpALA]ER [R42] | 65% | 73%
RMVLSAF[NLE]ER [R36] | 66% | 73%
RMVLSAF[ORN]ER [R41] | 65% | 63%
RMVLSAF[PRG]ER [R39] | 62% | 62%
RM[2-AOC]LSAFDER [R50] | 70% | 66%
RM[4-FPHE]LSAFDER [R55] | 70% | 65%
RM[OrnN2]LSAFDER [R83] | 71% | 72%
R[AHA]VLSAFDEK [R2] | 58% | 67%
R[AHA]VLSAF[2-AOC]ER [R67] | 74% | 78%
R[AHA]VLSAF[4-FPHE]ER [R68] | 67% | 64%
R[AHA]VLSAF[SOME]ER [R66] | 63% | 63%
R[NVA]VLSAFDKR [R59] | 62% | 68%
R[NVA]VLSAF[2-AOC]ER [R71] | 71% | 82%
R[NVA]VLSAF[4-FPHE]ER [R72] | 68% | 72%
R[NVA]VLSAF[SOME]ER [R70] | 64% | 74%
SFSFGGFTK [S WT, reference compound] | 67% | 58%
SF[4-FPHE]FGGFTK [S84] | 82% | 95%
S[AHA]RFGGFTK [S54] | 80% | 92%

Same assay, conditions: after 4h

Substance | FP binding score HLA-A*0301, percentage inhibition, 4h
RMVLSAF[CSET]ER [R37] | 60%
RMVLSAF[PRG]ER [R39] | 62%
R[AHA]VLSAF[SOME]ER [R66] | 63%

Same assay, conditions: after 24h

Substance | FP binding score HLA-A*0301, percentage inhibition, 24h
RMVLSAF[CSET]ER [R37] | 60%
RMVLSAF[PRG]ER [R39] | 62%
R[AHA]VLSAF[SOME]ER [R66] | 63%
